Measured values published in PMC5507300, “Antibacterial small molecules targeting the conserved TOPRIM domain of DNA gyrase” (PLoS ONE, 2017).
In brackets after ≈: the same amount, converted by molar mass.

Tests used:
[1] = target: T1, E. coli DNA gyrase (Escherichia coli, UniProt P0AES6); test: Cleavage complex stabilization gel assay; format: biochemical; details: supercoiled pUC19
T1 construct: purchased New England Biolabs, Beverly, MA
Procedure: Cleavage complex stabilization was detected by assembling a gyrase reaction, as above, containing 0.4μL compound (in 100% DMSO), 12.5 μL H2O, 4 μL 5X buffer, 0.4 μL supercoiled pUC19 DNA substrate (0.4 μg), 3 μL gyrase (15 U). The reaction was incubated at 25°C for 60 min. after which 3 μL 2% SDS and 3 μL 1 mg/mL proteinase K were added. […] DNA in the gel was illuminated with UV light and photographed as above.

[2] = system: E. coli BW25113 ΔtolC/ΔyacG; test: Broth microdilution MIC, E. coli BW25113 ΔtolC/ΔyacG; format: cell-based
Procedure: (§1) Compound doubling dilutions were prepared in 100% DMSO (Sigma Aldrich) and 2 μL of each dilution was transferred to a 96-well plate with lid (Thermo Scientific). Inoculum for all MIC testing was prepared using the BBL Prompt Inoculation System (Becton Dickinson, Franklin Lakes, NJ USA) as described by the manufacturer to produce a suspension of cells at approximately 1.5 x 10^8 colony forming units (CFU)/mL [34–36] and a further dilution (1:1000) was made into cation adjusted Mueller-Hinton broth (CAMH broth, Becton-Dickinson). One hundred μL of this inoculum were then transferred to each well of the 96-well plate containing diluted compound (above). Plates were covered and incubated overnight (18 hrs.) at 37°C.
The yacG deletion allele from the Keio collection was amplified by PCR (primers: […] and […]) and moved to BW25113 ΔtolC as described below. The E. coli strain BW25113 ΔtolC containing pKD46 [25] was used to inoculate SOB (Invitrogen)/0.2% w/v arabinose (Sigma Aldrich)/ampicillin (100 μg/mL) and grown overnight at 30°C. The overnight culture was then diluted 1/40 into 20 mL fresh SOB/0.2% w/v arabinose/ampicillin (100 μg/mL) and grown at 30°C while shaking for ~3 hrs until OD600 = 0.5. Cells were pelleted by centrifugation at 4000 rpm for 10 min, washed with 40 mL ice cold sterile, distilled H2O, then 3 x 1 mL ice cold 10% glycerol followed by centrifugation at 5000 g for 3 minutes. The pellet was resuspended in 100 μL of 10% glycerol (1/200 of starting culture). For transformation, 5 μL of gel purified PCR product was added to 50 μL cells, mixed, and immediately electroporated in a 0.2 cm gap cuvette at 2.5kV, 25 μF, 200 Ω (BioRad, Hercules, CA USA). Electroporated cells were recovered in 1 mL SOC (Invitrogen)/0.2% arabinose at 37°C for 2 hours with shaking. Cells in amounts of 50 and 950 μL were then plated on LB agar supplemented with kanamycin (25 μg/mL) and incubated overnight at 37°C. Correct gene replacements were verified by PCR.

[3] = system: E. coli HS151 (qnrVC); test: Broth microdilution MIC, E. coli HS151 (qnrVC); format: cell-based
Description: (§2) E. coli HS151 (ΔtolC) has been described previously. Gyrase inhibitor-resistant isolates (GYR101-108) were derived by selection for spontaneous resistance to MRL-770 or MRL-423 (Fig 1) in E. coli HS151 as described below. E. coli BW25113 and the Keio gene deletion collection based on BW25113 [25] were obtained from Thermo Fisher Scientific (Waltham, MA) and described in [26]. The plasmid-borne FQ resistance determinant, qnrVC3 [27], was kindly provided by D. Hooper (Massachusetts General Hospital). MB9796 (A. baumannii) is a derivative of MB9797 (ATCC19606) lacking lipopolysaccharide. The efflux-defective P. aeruginosa strain MB5890 (CB398) is a derivative of MB5919 (PAO1). MB2884 (E. coli) and CL15245 (K. pneumoniae) are clinical isolates from the Merck & Co., Inc., Kenilworth, NJ, USA, strain collection. S. aureus COL is a methicillin-resistant clinical isolate.
as §1

[4] = system: E. coli BW25113 ΔtolC; test: Broth microdilution MIC, E. coli BW25113 ΔtolC; format: cell-based; details: Escherichia coli
Description: as §2, §1
The yacG deletion allele from the Keio collection was amplified by PCR (primers: […] and […]) and moved to BW25113 ΔtolC as described below. The E. coli strain BW25113 ΔtolC containing pKD46 [25] was used to inoculate SOB (Invitrogen)/0.2% w/v arabinose (Sigma Aldrich)/ampicillin (100 μg/mL) and grown overnight at 30°C. The overnight culture was then diluted 1/40 into 20 mL fresh SOB/0.2% w/v arabinose/ampicillin (100 μg/mL) and grown at 30°C while shaking for ~3 hrs until OD600 = 0.5. […]

[5] = target: T2, E. coli topoisomerase IV (Escherichia coli, UniProt P20083); test: E. coli topoisomerase IV decatenation reaction; format: biochemical; details: maximum achievable concentration (200 μM), kDNA decatenation
T2 construct: purchased TopoGEN, Inc
T2 sequence (P20083 whole entry): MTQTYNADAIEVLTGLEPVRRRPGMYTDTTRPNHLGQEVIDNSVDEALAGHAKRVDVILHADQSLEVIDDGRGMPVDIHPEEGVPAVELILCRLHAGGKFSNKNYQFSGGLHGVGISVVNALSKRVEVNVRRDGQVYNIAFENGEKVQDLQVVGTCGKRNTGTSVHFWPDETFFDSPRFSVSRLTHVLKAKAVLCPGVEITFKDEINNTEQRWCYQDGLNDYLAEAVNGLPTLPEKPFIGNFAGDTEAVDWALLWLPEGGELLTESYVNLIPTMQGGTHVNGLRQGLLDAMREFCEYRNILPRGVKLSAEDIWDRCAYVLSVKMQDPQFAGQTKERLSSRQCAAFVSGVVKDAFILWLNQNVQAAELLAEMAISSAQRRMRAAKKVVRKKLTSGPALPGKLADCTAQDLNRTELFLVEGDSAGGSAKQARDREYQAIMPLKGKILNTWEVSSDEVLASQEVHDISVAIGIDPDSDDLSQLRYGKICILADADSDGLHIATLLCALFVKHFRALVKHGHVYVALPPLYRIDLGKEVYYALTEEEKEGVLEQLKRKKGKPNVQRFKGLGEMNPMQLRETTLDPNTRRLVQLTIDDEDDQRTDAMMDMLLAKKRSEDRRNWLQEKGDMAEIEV
T2 sequence (P0AFI2 whole entry, further chain): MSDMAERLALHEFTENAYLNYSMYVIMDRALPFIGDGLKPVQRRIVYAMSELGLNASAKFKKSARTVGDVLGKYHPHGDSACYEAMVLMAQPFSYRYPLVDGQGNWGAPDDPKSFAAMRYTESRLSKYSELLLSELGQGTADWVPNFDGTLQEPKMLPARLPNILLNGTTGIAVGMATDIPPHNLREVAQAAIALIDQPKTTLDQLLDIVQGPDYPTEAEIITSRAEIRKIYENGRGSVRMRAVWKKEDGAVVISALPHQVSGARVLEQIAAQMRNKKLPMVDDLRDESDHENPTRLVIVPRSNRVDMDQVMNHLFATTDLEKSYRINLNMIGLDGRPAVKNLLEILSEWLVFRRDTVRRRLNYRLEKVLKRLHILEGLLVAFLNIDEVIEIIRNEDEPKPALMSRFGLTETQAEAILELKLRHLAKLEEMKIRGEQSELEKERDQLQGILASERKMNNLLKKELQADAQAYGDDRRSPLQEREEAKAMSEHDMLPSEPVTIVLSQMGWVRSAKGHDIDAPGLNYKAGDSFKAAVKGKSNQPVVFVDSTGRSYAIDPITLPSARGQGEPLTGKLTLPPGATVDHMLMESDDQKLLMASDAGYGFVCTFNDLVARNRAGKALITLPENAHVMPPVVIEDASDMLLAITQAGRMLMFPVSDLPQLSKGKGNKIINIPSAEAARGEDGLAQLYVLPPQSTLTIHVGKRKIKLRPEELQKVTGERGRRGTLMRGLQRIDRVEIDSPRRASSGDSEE

[6] = system: E. coli HS151; test: In vitro time-dependent bactericidal study; format: cell-based
Procedure: A culture of E. coli HS151 in CAMH broth was grown overnight (18 hrs.) at 37°C, diluted 1:10,000 in 200 mL of fresh CAMH broth and further incubated for 1 hour at 37°C with shaking. A time-zero sample was then removed and 20 mL portions of the remaining culture were transferred into 125 mL vented flasks to which were added MRL-1082 or control antibiotics, at the indicated concentrations. These flasks were then incubated at 37°C with shaking (70 rpm). Samples were withdrawn at the indicated times, plated on blood agar (trypticase soy agar with 5% sheep blood, Becton-Dickinson) and, following overnight growth at 37°C, colonies were counted to determine CFU/mL.

Row | SMILES | cleavage complex stabilization [1] | effect of deletion of yacG on potency ([2]; E. coli BW25113 (ΔtolC) ΔyacG) | MIC ([2]; Escherichia coli, BW25113) [µg/mL] | resistance conferred by qnrVC3 expression ([3]; E. coli HS151 with plasmid qnrVC3 vs HS151) | MIC ([3]; Escherichia coli) [µg/mL] | MIC [4] [µg/mL] | activity against E. coli topoisomerase IV [5] | reduction in culture viability ([6]; E. coli HS151, 2XMIC or greater, following 2–4 hours of treatment) | culture viability, below lower limit of quantitation ([6]; E. coli HS151, 4-8XMIC, after 8 hours) [CFU/mL] | MIC ([6]; Escherichia coli, HS151, 24 h, read-out: MIC of isolates from treated culture) [µg/mL]
1 | Cn1ncc2cc(-c3cnnn3C3CCN(C(=O)Nc4cc(Cl)cc(Cl)c4)CC3)ccc21 [MRL-423] | stabilizes cleavage complex formation in a dose-dependent fashion | does not affect the potency | 0.25 (≈ 0.532 µM) | no effect | 0.25 (≈ 0.532 µM) | 0.25 (≈ 0.532 µM) | – | – | – | –
2 | Cn1ncc2cc(-c3nnnn3C3CCN(C(=O)Nc4ccc(Cl)c(Cl)c4)CC3)ccc21 [MRL-1082] | – | – | – | – | – | – | does not inhibit | greater than 3 log | < 20 | 0.0625
